A short description of one series: physchem. The note with it: octanol/water.
The nature of series [1]: AUC in nude mouse at 100 umol/kg, po. It counts as ADME, organism-based. To be noted: plasma.
Series [2] can be described thus: Cmax in nude mouse at 100 umol/kg, po. In kind it is ADME, organism-based. On the set-up: dose 100 umol/kg, route oral. The note with it: in vivo.
Series [3] is described as follows: AUC in nude mouse at 200 umol/kg, po. It counts as ADME, organism-based. To be noted: plasma.
Series [4] in a line: Cmax in nude mouse at 200 umol/kg, po. In kind it is ADME, organism-based. Set-up: dose 200 umol/kg, route oral. The note with it: in vivo.
The subject of another series is Canis familiaris. Kind of series: Clearance in Beagle dog assessed as liver blood flow at 2 umol/kg, iv and 5 umol/kg, po. In kind it is ADME, organism-based, Canis lupus familiaris. The note with it: in vivo.
A short description of series [5]: Volume of distribution at steady state in Beagle dog at 2 umol/kg, iv and 5 umol/kg, po. In kind it is ADME, organism-based, Canis lupus familiaris. To be noted: in vivo, read-out: Vdss.
The nature of series [6]: Oral bioavailability in Beagle dog at 5 umol/kg, po. It counts as ADME, organism-based, Canis lupus familiaris. To be noted: in vivo.
Series [7] can be described thus: AUC in nude mouse at 10 umol/kg, po. In kind it is ADME, organism-based. The note with it: plasma.
Series [8] in a line: Cmax in nude mouse at 10 umol/kg, po. It counts as ADME, organism-based. On the set-up: dose 10 umol/kg, route oral. To be noted: in vivo.
A short description of series [9]: Oral bioavailability in Han Wistar rat at 5 or 10 µmol/kg, po. To be noted: in vivo.
A further series has as its system Rattus norvegicus. Kind of series: Clearance in Han Wistar rat assessed as liver blood flow at 1 or 2.5 µmol/kg, iv and 5 or 10 µmol/kg, po. The note with it: in vivo.
Series [10] is described as follows: Volume of distribution at steady state in Han Wistar rat at 1 or 2.5 µmol/kg, iv and 5 or 10 µmol/kg, po. To be noted: in vivo, read-out: Vdss.

The structures appear in SMILES notation.

Experimental findings from ChEMBL document CHEMBL1759854, “Inhibitors of the tyrosine kinase EphB4. Part 4: Discovery and optimization of a benzylic alcohol series” (Bioorg Med Chem Lett, 2011) are described below.

In general, logD refers to the decadic logarithm of the distribution of all forms, ionised or not, between an organic phase and buffer at a given pH. The low end stands for a more hydrophilic compound, the high end for a more lipophilic compound. Broadly, the AUC is concentration integrated over time. Read a high AUC as more exposure. By Cmax is commonly meant the highest concentration seen after dosing. By bioavailability is commonly meant the share of a dose that reaches the circulation, judged against a reference dose that is usually intravenous.

Turning to `Cc1ccc(CO)cc1N(c1ccnc(Nc2cc(N3CCOCC3)cc(S(C)(=O)=O)c2)n1)C(C)C`, the logD in the series “physchem” came out at 3.4.
For `Cc1ccc(CO)cc1N(C)c1ccnc(Nc2cc(N3CCOCC3)cc(N3CCOCC3)c2)n1`, the results for the exposure (AUC) in [1], in series [3] and in series [7] were 63 µM·h, 155 µM·h and 1.6 µM·h, respectively. Moreover, the highest concentration (Cmax) was determined as 15 µM in [2], 17 µM in series [4] and 1.9 µM in series [8]. In addition, the figures for the LBF in the series on Canis familiaris and with Rattus norvegicus were 51% and 11%, respectively. Moreover, the Vd in [5] stood at 2.1 L/kg; in series [10], 0.5 L/kg. Besides, the results for the bioavailability in series [6] and in [9] were 58% and 78%, respectively. In “physchem”, the logD came out at 3.1.
In “physchem”, `Cc1ccc(CO)cc1N(C)c1ccnc(Nc2cc(N3CCCC3)cc(N3CCOCC3)c2)n1` had a logD of 3.8.
Take `Cc1ccc(CO)cc1N(C)c1ccnc(Nc2cc(N3CCCCC3)cc(N3CCOCC3)c2)n1`: the logD in the series “physchem” was determined as 4.2.
Consider `Cc1ccc(CO)cc1N(C)c1ccnc(Nc2cc(N3CCCOCC3)cc(N3CCOCC3)c2)n1`, for which the logD in the series “physchem” came to 3.3.
Still for that read-out and setting: in the case of `Cc1ccc(CO)cc1N(C)c1ccnc(Nc2cc(N3CCOCC3)cc(N3CCN(O)CC3)c2)n1` it was 2.8.
In the case of `Cc1ccc(CO)cc1N(C)c1ccnc(Nc2cc(CN3CCOCC3)cc(N3CCOCC3)c2)n1`, the pH-dependent lipophilicity (logD) in “physchem” amounted to 3.
`Cc1ccc(CO)cc1N(C)c1ccnc(Nc2cc(C(=O)N3CCOCC3)cc(N3CCOCC3)c2)n1` registered a logD in the series “physchem” of 2.2.
Regarding `Cc1ccc(CO)cc1N(C)c1ccnc(Nc2cc(OC3CCOCC3)cc(N3CCOCC3)c2)n1`, the log distribution coefficient (logD) in the series “physchem” turned out to be 3.7.
The same measure, in the same setting: in the case of `COCCOc1cc(Nc2nccc(N(C)c3cc(CO)ccc3C)n2)cc(N2CCOCC2)c1` it was 3.3.
Still for that read-out and setting: in the case of `COc1cc(Nc2nccc(N(C)c3cc(CO)ccc3C)n2)cc(N2CCOCC2)c1` it was 3.9.
In turn, `Cc1ccc(CO)cc1N(C)c1ccnc(Nc2cc(N3CCOCC3)cc(S(C)(=O)=O)c2)n1` showed a bioavailability in series [9] of 17%. Also, in the series with Rattus norvegicus, the LBF came out at 16%. Further, the Vd in series [10] stood at 0.4 L/kg.
On to `CCN(c1ccnc(Nc2cc(N3CCOCC3)cc(N3CCOCC3)c2)n1)c1cc(CO)ccc1C`, for which, in the series “physchem”, the log distribution coefficient (logD) was 3.8.
In the series “physchem”, `COCCN(c1ccnc(Nc2cc(N3CCOCC3)cc(N3CCOCC3)c2)n1)c1cc(CO)ccc1C` returned a log distribution coefficient (logD) of 2.8.
For the compound `Cc1ccc(CO)cc1N(C)c1ccnc(Nc2cc(N3CCOCC3)nc(N3CCOCC3)c2)n1`, the LBF with Canis familiaris came out at 57%; in the series with Rattus norvegicus it was 9%. The values for the Vd in series [5] and in series [10] were 1.6 L/kg and 0.7 L/kg, respectively. Besides, the bioavailability came out at 22% in series [6] and 64% in series [9]. This compound had a log distribution coefficient (logD) in “physchem” of 3.4.
As to `Cc1ccc(CO)cc1N(C)c1ccnc(Nc2cc(N3CCOCC3)nc(N3CCOCC3)n2)n1`, the pH-dependent lipophilicity (logD) in “physchem” stood at 3.9.
